Reference: paper PMC12860872, “Preclinical evaluation of DOTAGA.Glu.(FAPI)2 and DO3A.Glu.(FAPI)2 as theranostics with human dosimetry extrapolation to lutetium-177 and terbium-161 analogs” (European Journal of Nuclear Medicine and Molecular Imaging, 2025)
“And” between values parts separate entries of the source, which are not always exact repeats. Equal values may be shown once.

What was measured:
[1] = Blood clearance kinetics in healthy mice; assay type: in vivo, mouse; details: i.v., Two-Phase Decay Model
Method: Blood samples were collected from the facial vein at 1, 3, 5, 7, 10, 15, 20, 30, 45, 60, 240, and 1440 min p.i., weighed, and measured for radioactivity using a γ-counter. Results were expressed as % I.A./g of blood and plotted over time. The initial and terminal half-lives were determined using Two-Phase Decay Model. The biological half-lives of selected organs were calculated from the biodistribution data using One-Phase Decay Model (GraphPad Prism 8).

[2] = biological target: T1, FAP (Homo sapiens, UniProt Q12884); test: Saturation binding on FAP+ CAFs; details: for Kd: 0.1 to 10 nM radioligand
T1 construct: the CAF cells overexpressing FAP were seeded at a density of 0.8-1 million cells per well; host or cells: hTERT PF179T prostate cancer-associated fibroblasts
T1 sequence (Q12884 1-760): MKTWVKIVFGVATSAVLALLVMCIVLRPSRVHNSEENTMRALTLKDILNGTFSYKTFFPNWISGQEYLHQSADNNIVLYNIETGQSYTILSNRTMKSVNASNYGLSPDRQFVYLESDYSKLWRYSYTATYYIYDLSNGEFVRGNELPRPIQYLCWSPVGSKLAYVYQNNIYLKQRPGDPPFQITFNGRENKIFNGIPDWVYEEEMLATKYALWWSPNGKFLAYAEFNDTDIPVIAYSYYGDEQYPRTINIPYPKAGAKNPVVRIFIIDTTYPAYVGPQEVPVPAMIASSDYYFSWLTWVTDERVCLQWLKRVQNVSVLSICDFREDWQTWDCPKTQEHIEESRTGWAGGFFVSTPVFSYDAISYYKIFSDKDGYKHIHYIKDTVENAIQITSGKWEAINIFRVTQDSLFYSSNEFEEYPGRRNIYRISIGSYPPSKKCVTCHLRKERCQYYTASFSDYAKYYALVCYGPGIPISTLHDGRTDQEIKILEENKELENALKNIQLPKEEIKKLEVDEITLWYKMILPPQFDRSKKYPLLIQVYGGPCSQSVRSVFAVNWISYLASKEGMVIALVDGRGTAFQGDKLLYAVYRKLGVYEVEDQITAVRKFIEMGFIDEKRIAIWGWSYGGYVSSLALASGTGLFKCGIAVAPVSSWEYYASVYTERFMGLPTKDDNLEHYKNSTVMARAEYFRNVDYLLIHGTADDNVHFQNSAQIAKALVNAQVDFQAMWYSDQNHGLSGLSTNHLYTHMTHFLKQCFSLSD
Method: For receptor saturation studies, FAP^+ CAFs were incubated with 0.1 to 10 nM of the radioligands. For internalization studies, approximately 2.5 pmol of the radioligands were added to CAFs followed by incubation for 15, 30, 60, 90, 120, 180 and 240 min for the ^68Ga-labeled or 30, 60, 120, 240 and 360 min for the ^177Lu-labeled radioligands at 37 °C, 5% CO2. For the externalization studies, approximately 2.5 pmol of the ^177Lu-labeled radioligands were added to CAFs followed by incubation for 2 h at 37 °C, 5% CO2. The amount of externalized activity was measured at 0, 10, 20, 30, 60, 120, 240, and 1440 min (Supplemental Data).
For receptor saturation analysis, the CAF cells overexpressing FAP were seeded at a density of 0.8-1 million cells per well in 6-well plates, pre-coated with BME (Cultrex Reduced Growth Factor Basement Membrane Extract, RGF BME, R&D System, Minneapolis, USA) to enhance cell attachment. The cells were incubated overnight with medium (EMEM supplemented and containing 10% FBS, 100 U/mL penicillin and 100 μg/mL streptomycin). The next day, the medium was removed and the cells were incubated for 30 minutes at 37 °C, with 0.8 mL of fresh medium. Afterwards, the plates were placed on ice for 30 minutes followed by incubation with increasing concentrations of ^68/natGa- and ^177/natLu-labelled DOTAGA.Glu.(FAPI)2 and DO3A.Glu.( FAPI)2 (0.1-10 nM final concentration in the wells). After the addition of the radioligands, the cells were incubated for 120 minutes at 4 °C. Non-specific binding was determined in the presence of UAMC1110 at a final concentration of 1 μM. After the completion of the incubation, the cells were washed twice with ice-cold PBS, followed by solubilization with 1 M NaOH. The cell-associated radioactivity was measured using a gamma-counter. Specific binding was plotted against the total molar concentration of the added radiotracer. The Kd values and the concentration of the radioligand required to saturate the receptors (Bmax) were determined by nonlinear regression using GraphPad (Prism 8 Graph Pad Software, San Diego, CA). For all the cell studies the values are normalized for 1x10^6 cells per well and all data are from two independent experiments with triplicates in each experiment.

[3] = listed as 177/natLu-DO3A.Glu.(FAPI)2
[4] = listed as 177/natLu-DOTAGA.Glu.(FAPI)2

| Compound | Blood half life (initial) [1] [min] | Blood half life (terminal) [1] | Kd [2, 3] | Bmax [2, 3] | Kd [2, 4] | Bmax [2, 4] |
| --- | --- | --- | --- | --- | --- | --- |
| N#C[C@@H]1CC(F)(F)CN1C(=O)CNC(=O)c1ccnc2ccc(OCCCCNC(=O)CC[C@H](NC(=O)CN3CCN(CC(=O)[O-])CCN(CC(=O)[O-])CCN(CC(=O)[O-])CC3)C(=O)NCCCCOc3ccc4nccc(C(=O)NCC(=O)N5CC(F)(F)C[C@H]5C#N)c4c3)cc12.[177Lu+3] [[^177Lu]Lu-DO3A.Glu.(FAPI)2] | 1.3 | 4.172 h and 4.17 h | 0.7 nM and 0.72 nM | 0.4 ± 0.02 nM and 0.37 ± 0.02 nM |  |  |
| N#C[C@@H]1CC(F)(F)CN1C(=O)CNC(=O)c1ccnc2ccc(OCCCCNC(=O)CC[C@H](NC(=O)CCC(C(=O)O)N3CCN(CC(=O)[O-])CCN(CC(=O)[O-])CCN(CC(=O)[O-])CC3)C(=O)NCCCCOc3ccc4nccc(C(=O)NCC(=O)N5CC(F)(F)C[C@H]5C#N)c4c3)cc12.[177Lu+3] (some centres unmarked) [[^177Lu]Lu-DOTAGA.Glu.(FAPI)2] | 2.8 | 4.692 h and 4.7 h |  |  | 0.7 nM and 0.68 nM | 0.4 ± 0.02 nM and 0.36 ± 0.02 nM |
